According to publication PMC5218480 (PLoS ONE, 2017):

Tested on: MV-4-11 cells
Assay: Gene expression microarray analysis (Affymetrix PrimeView) and GSEA
Type: cell-based, human
Design: RFU PODN (11730768_x_at) / Fold change /veh PODN (11730768_x_at) / RFU LINC00158 (11744669_a_at) / Fold change /veh LINC00158 (11744669_a_at) / RFU DUSP10 (11751237_a_at) / Fold change /veh DUSP10 (11751237_a_at) / RFU ID3 (11757404_x_at) / Fold change /veh ID3 (11757404_x_at) / RFU PLEKHG5 (11737974_s_at) / Fold change /veh PLEKHG5 (11737974_s_at) / RFU LRRC4B (11730491_at) / Fold change /veh LRRC4B (11730491_at) / RFU GIMAP4 (11747438_a_at) / Fold change /veh GIMAP4 (11747438_a_at) / RFU KRT8 (11758183_x_at) / Fold change /veh KRT8 (11758183_x_at) / RFU CNN1 (11734310_a_at) / Fold change /veh CNN1 (11734310_a_at) / RFU VPS37D (11726825_at) / Fold change /veh VPS37D (11726825_at) / RFU C10orf10 (11716522_x_at) / Fold change /veh C10orf10 (11716522_x_at) / RFU KIR2DL2 /// KIR2DL4 /// KIR2DL5A /// KIR2DL5B /// KIR2DS1 /// KIR2DS2 /// KIR2DS3 /// KIR2DS4 /// KIR3DL3 /// KIR3DL3 /// KIR3DS1 (11738374_at) / Fold change /veh KIR2DL2 /// KIR2DL4 /// KIR2DL5A /// KIR2DL5B /// KIR2DS1 /// KIR2DS2 /// KIR2DS3 /// KIR2DS4 /// KIR3DL3 /// KIR3DL3 /// KIR3DS1 (11738374_at) / RFU C1QL1 (11718748_at) / Fold change /veh C1QL1 (11718748_at) / RFU TMPRSS4 (11747572_a_at) / Fold change /veh TMPRSS4 (11747572_a_at) / RFU HAMP (11756126_x_at) / Fold change /veh HAMP (11756126_x_at) / RFU RNFT2 (11725882_a_at) / Fold change /veh RNFT2 (11725882_a_at) / RFU NR4A2 (11747474_a_at) / Fold change /veh NR4A2 (11747474_a_at) / RFU ABCC12 (11746883_a_at) / Fold change /veh ABCC12 (11746883_a_at) / RFU TMEM136 (11760407_x_at) / Fold change /veh TMEM136 (11760407_x_at) / RFU CLDN22 /// WWC2 (11732394_at) / Fold change /veh CLDN22 /// WWC2 (11732394_at) / RFU HLA-DPB1 (11760878_x_at) / Fold change /veh HLA-DPB1 (11760878_x_at) / RFU SPINT1 (11716480_a_at) / Fold change /veh SPINT1 (11716480_a_at) / RFU GAP43 (11754022_s_at) / Fold change /veh GAP43 (11754022_s_at) / RFU A4GNT (11735810_at) / Fold change /veh A4GNT (11735810_at) / RFU PRB3 (11715151_x_at) / Fold change /veh PRB3 (11715151_x_at) / RFU TUBB4B (11761932_at) / Fold change /veh TUBB4B (11761932_at) / RFU CAPN14 (11732068_a_at) / Fold change /veh CAPN14 (11732068_a_at) / RFU TMCC2 (11721928_a_at) / Fold change /veh TMCC2 (11721928_a_at) / RFU IRGQ (11745062_a_at) / Fold change /veh IRGQ (11745062_a_at) / RFU FAM174B (11720279_a_at) / Fold change /veh FAM174B (11720279_a_at) / RFU TMPRSS4 (11748680_a_at) / Fold change /veh TMPRSS4 (11748680_a_at) / RFU FAM212B (11763350_a_at) / Fold change /veh FAM212B (11763350_a_at) / RFU PLEKHG5 (11743358_a_at) / Fold change /veh PLEKHG5 (11743358_a_at) / RFU ZSCAN30 (11745921_a_at) / Fold change /veh ZSCAN30 (11745921_a_at) / RFU CMKLR1 (11741424_a_at) / Fold change /veh CMKLR1 (11741424_a_at) / RFU LOC101060620 /// MAPK8IP1 (11723275_at) / Fold change /veh LOC101060620 /// MAPK8IP1 (11723275_at) / RFU SPTSSB (11747773_x_at) / Fold change /veh SPTSSB (11747773_x_at) / RFU PRSS12 (11739890_at) / Fold change /veh PRSS12 (11739890_at) / RFU BIN1 (11741810_x_at) / Fold change /veh BIN1 (11741810_x_at) / RFU WNT11 (11732464_a_at) / Fold change /veh WNT11 (11732464_a_at) / RFU C10orf10 (11716521_a_at) / Fold change /veh C10orf10 (11716521_a_at) / RFU C5orf56 (11738089_at) / Fold change /veh C5orf56 (11738089_at) / RFU CYB561 (11721691_x_at) / Fold change /veh CYB561 (11721691_x_at) / RFU ANKRD19P (11752326_a_at) / Fold change /veh ANKRD19P (11752326_a_at) / RFU OR2T12 /// OR2T33 /// OR2T8 (11738714_s_at) / Fold change /veh OR2T12 /// OR2T33 /// OR2T8 (11738714_s_at) / RFU VCAN (11748164_a_at) / Fold change /veh VCAN (11748164_a_at) / RFU JSRP1 (11732532_at) / Fold change /veh JSRP1 (11732532_at) / RFU KRTAP10-11 (11738290_x_at) / Fold change /veh KRTAP10-11 (11738290_x_at) / RFU MYO3A (11730013_a_at) / Fold change /veh MYO3A (11730013_a_at) / RFU EBF3 (11725865_a_at) / Fold change /veh EBF3 (11725865_a_at) / RFU CAMK2N1 (11719241_x_at) / Fold change /veh CAMK2N1 (11719241_x_at) / RFU C5orf56 (11738088_a_at) / Fold change /veh C5orf56 (11738088_a_at) / RFU OLFML3 (11715873_a_at) / Fold change /veh OLFML3 (11715873_a_at) / RFU LOC100653217 /// NTM (11731650_a_at) / Fold change /veh LOC100653217 /// NTM (11731650_a_at) / RFU MAPK11 (11762145_a_at) / Fold change /veh MAPK11 (11762145_a_at) / RFU FIZ1 (11724087_x_at) / Fold change /veh FIZ1 (11724087_x_at) / RFU OASL (11726364_x_at) / Fold change /veh OASL (11726364_x_at) / RFU SOX15 (11748057_x_at) / Fold change /veh SOX15 (11748057_x_at) / RFU CD79A (11719716_a_at) / Fold change /veh CD79A (11719716_a_at) / RFU HIST1H1D (11736915_at) / Fold change /veh HIST1H1D (11736915_at) / RFU CASKIN2 (11723855_a_at) / Fold change /veh CASKIN2 (11723855_a_at) / RFU LOC730098 (11760151_x_at) / Fold change /veh LOC730098 (11760151_x_at) / RFU OR4N2 (11742367_at) / Fold change /veh OR4N2 (11742367_at) / RFU PRRT2 (11749266_a_at) / Fold change /veh PRRT2 (11749266_a_at) / RFU SNX32 (11753110_a_at) / Fold change /veh SNX32 (11753110_a_at) / RFU CDHR5 (11726645_a_at) / Fold change /veh CDHR5 (11726645_a_at) / RFU RCAN1 (11760418_a_at) / Fold change /veh RCAN1 (11760418_a_at) / RFU FAM167A (11723789_a_at) / Fold change /veh FAM167A (11723789_a_at) / RFU FAM26E (11764081_at) / Fold change /veh FAM26E (11764081_at) / RFU ISYNA1 (11749810_s_at) / Fold change /veh ISYNA1 (11749810_s_at) / RFU ACY1 (11761880_at) / Fold change /veh ACY1 (11761880_at) / RFU 11764098_at / Fold change /veh 11764098_at / RFU SAMD14 (11745864_x_at) / Fold change /veh SAMD14 (11745864_x_at) / RFU NPB (11741838_a_at) / Fold change /veh NPB (11741838_a_at) / RFU TMPRSS6 (11731388_a_at) / Fold change /veh TMPRSS6 (11731388_a_at) / RFU KRTAP10-2 (11738614_at) / Fold change /veh KRTAP10-2 (11738614_at) / RFU ARHGAP8 /// PRR5-ARHGAP8 (11727945_x_at) / Fold change /veh ARHGAP8 /// PRR5-ARHGAP8 (11727945_x_at) / RFU KRTAP5-7 /// NADSYN1 (11734609_at) / Fold change /veh KRTAP5-7 /// NADSYN1 (11734609_at) / RFU RASL12 (11751679_a_at) / Fold change /veh RASL12 (11751679_a_at) / RFU CDKN2B (11736163_a_at) / Fold change /veh CDKN2B (11736163_a_at) / RFU PRF1 (11729649_at) / Fold change /veh PRF1 (11729649_at) / RFU, ZNF638 /// ZNF638-IT1 / Fold change vs veh, ZNF638 /// ZNF638-IT1 / RFU, PANK3 / Fold change vs veh, PANK3 / RFU, SH3YL1 / Fold change vs veh, SH3YL1 / RFU, ZEB2 / Fold change vs veh, ZEB2 / RFU, NRIP1 / Fold change vs veh, NRIP1 / RFU, PTTG1IP / Fold change vs veh, PTTG1IP / RFU, CAPN2 / Fold change vs veh, CAPN2 / RFU, MED14 / Fold change vs veh, MED14 / RFU, SNORA58 / Fold change vs veh, SNORA58 / RFU, C1orf63 / Fold change vs veh, C1orf63 / RFU, LRRFIP1 / Fold change vs veh, LRRFIP1 / RFU, NDUFAF7 / Fold change vs veh, NDUFAF7 / RFU, SLC12A2 / Fold change vs veh, SLC12A2 / RFU, IBTK / Fold change vs veh, IBTK / RFU, ESF1 / Fold change vs veh, ESF1 / Fold change vs veh, TMEM50B / RFU, TAOK1 / Fold change vs veh, TAOK1 / RFU, ACBD3 / Fold change vs veh, ACBD3 / RFU, TMA16 / Fold change vs veh, TMA16 / RFU, RWDD3 / Fold change vs veh, RWDD3 / RFU, BCAT1 / Fold change vs veh, BCAT1 / RFU, EDEM3 / Fold change vs veh, EDEM3 / RFU, TMEM33 / Fold change vs veh, TMEM33 / RFU, WDR75 / Fold change vs veh, WDR75 / RFU, AHCTF1 / Fold change vs veh, AHCTF1 / RFU, TFRC / Fold change vs veh, TFRC / RFU, ZDHHC17 / Fold change vs veh, ZDHHC17 / RFU, NOM1 / Fold change vs veh, NOM1 / RFU, ARL8B / Fold change vs veh, ARL8B / RFU, ZBTB11 / Fold change vs veh, ZBTB11 / RFU, TAMM41 / Fold change vs veh, TAMM41 / RFU, KIAA1704 /// LOC100996395 / Fold change vs veh, KIAA1704 /// LOC100996395 / RFU, ING1 / Fold change vs veh, ING1 / RFU, TRMT61B / Fold change vs veh, TRMT61B / RFU, FUBP3 / Fold change vs veh, FUBP3 / RFU, TP53 / Fold change vs veh, TP53 / RFU, TNKS2 / Fold change vs veh, TNKS2 / RFU, ZFP14 / Fold change vs veh, ZFP14 / RFU, ACTR2 / Fold change vs veh, ACTR2 / RFU, PPP3R1 / Fold change vs veh, PPP3R1 / RFU, PIK3R1 / Fold change vs veh, PIK3R1 / RFU, HNRNPA1 / Fold change vs veh, HNRNPA1 / RFU, RNF170 / Fold change vs veh, RNF170 / RFU, ZNF28 / Fold change vs veh, ZNF28 / RFU, RNGTT / Fold change vs veh, RNGTT / RFU, OGT / Fold change vs veh, OGT / RFU, BRD1 / Fold change vs veh, BRD1 / RFU, MARS / Fold change vs veh, MARS / RFU, ZNF655 / Fold change vs veh, ZNF655 / RFU, FAHD1 / Fold change vs veh, FAHD1 / RFU, BDP1 / Fold change vs veh, BDP1 / RFU, LRRCC1 / Fold change vs veh, LRRCC1 / RFU, ARID1A / Fold change vs veh, ARID1A / RFU, ZNF146 / Fold change vs veh, ZNF146 / RFU, ZNF330 / Fold change vs veh, ZNF330 / RFU, GPN3 / Fold change vs veh, GPN3 / RFU, C9orf123 / Fold change vs veh, C9orf123 / RFU, N4BP2L2 / Fold change vs veh, N4BP2L2 / RFU, ARFIP1 / Fold change vs veh, ARFIP1 / RFU, FAM179B / Fold change vs veh, FAM179B / RFU, BCL10 / Fold change vs veh, BCL10 / RFU, UHRF1BP1L / Fold change vs veh, UHRF1BP1L / RFU, BET1 / Fold change vs veh, BET1 / RFU, CNOT2 / Fold change vs veh, CNOT2 / RFU, ZNF268 / Fold change vs veh, ZNF268 / Fold change vs veh, ZNF507 / RFU, DGCR2 / Fold change vs veh, DGCR2 / RFU, WDSUB1 / Fold change vs veh, WDSUB1 / Fold change vs veh, HSP90B1 /// MIR3652 / RFU, ADSS / Fold change vs veh, ADSS / RFU, GK / Fold change vs veh, GK / RFU, ZNF148 / Fold change vs veh, ZNF148 / RFU, TAF9 / Fold change vs veh, TAF9 / RFU, SLC1A5 / Fold change vs veh, SLC1A5 / RFU, SLMO2 / Fold change vs veh, SLMO2 / RFU, ABCC4 / Fold change vs veh, ABCC4 / RFU, LOC101060439 /// RAP1B / Fold change vs veh, LOC101060439 /// RAP1B / RFU, RFX7 / Fold change vs veh, RFX7 / RFU, GTPBP10 / Fold change vs veh, GTPBP10 / RFU, CNEP1R1 / Fold change vs veh, CNEP1R1 / RFU, BIVM-ERCC5 /// ERCC5 / Fold change vs veh, BIVM-ERCC5 /// ERCC5 / RFU, ILF3 / Fold change vs veh, ILF3 / RFU 11762660_at / Fold change /veh 11762660_at / RFU VCAN (11757783_s_at) / Fold change /veh VCAN (11757783_s_at) / RFU DDX43 (11728927_at) / Fold change /veh DDX43 (11728927_at) / RFU KRT8 (11758188_x_at) / Fold change /veh KRT8 (11758188_x_at) / RFU NKD1 (11759106_at) / Fold change /veh NKD1 (11759106_at) / RFU SRD5A1 (11742802_a_at) / Fold change /veh SRD5A1 (11742802_a_at) / RFU TPSAB1 /// TPSB2 (11721975_s_at) / Fold change /veh TPSAB1 /// TPSB2 (11721975_s_at) / RFU GSTM3 (11746129_a_at) / Fold change /veh GSTM3 (11746129_a_at) / RFU IL23R (11737362_x_at) / Fold change /veh IL23R (11737362_x_at) / RFU TMEM51 (11727254_a_at) / Fold change /veh TMEM51 (11727254_a_at) / RFU PIWIL2 (11732686_x_at) / Fold change /veh PIWIL2 (11732686_x_at) / RFU ORM1 (11744905_x_at) / Fold change /veh ORM1 (11744905_x_at) / RFU CCDC152 (11743942_at) / Fold change /veh CCDC152 (11743942_at) / RFU ECM1 (11717891_a_at) / Fold change /veh ECM1 (11717891_a_at) / RFU IL23R (11748794_a_at) / Fold change /veh IL23R (11748794_a_at) / RFU TNFAIP8L3 (11732012_x_at) / Fold change /veh TNFAIP8L3 (11732012_x_at) / RFU MBOAT4 (11741988_at) / Fold change /veh MBOAT4 (11741988_at) / RFU 11764193_at / Fold change /veh 11764193_at / RFU TMEM53 (11763286_at) / Fold change /veh TMEM53 (11763286_at) / RFU MAGEB2 (11727129_at) / Fold change /veh MAGEB2 (11727129_at) / RFU TMEM200A (11744735_a_at) / Fold change /veh TMEM200A (11744735_a_at) / RFU CCDC152 (11751479_a_at) / Fold change /veh CCDC152 (11751479_a_at) / RFU FAM211A (11726209_a_at) / Fold change /veh FAM211A (11726209_a_at) / RFU RGS16 (11746705_a_at) / Fold change /veh RGS16 (11746705_a_at) / RFU VCAN (11755009_s_at) / Fold change /veh VCAN (11755009_s_at) / RFU RHOB (11743442_s_at) / Fold change /veh RHOB (11743442_s_at) / RFU RGS16 (11720943_a_at) / Fold change /veh RGS16 (11720943_a_at) / RFU RGS16 (11720944_at) / Fold change /veh RGS16 (11720944_at) / RFU, VPS4B / Fold change vs veh, VPS4B / RFU, CREB1 / Fold change vs veh, CREB1 / RFU, DNAJC13 / Fold change vs veh, DNAJC13 / RFU, GNAQ / Fold change vs veh, GNAQ / RFU, CDK5R1 / Fold change vs veh, CDK5R1 / RFU, ZRANB3 / Fold change vs veh, ZRANB3 / RFU, CUL4A / Fold change vs veh, CUL4A / RFU, CCNY / Fold change vs veh, CCNY / RFU, UFL1 / Fold change vs veh, UFL1 / RFU, COG3 / Fold change vs veh, COG3 / RFU, DIAPH2 / Fold change vs veh, DIAPH2 / RFU, SKA2 / Fold change vs veh, SKA2 / RFU, AFF3 / Fold change vs veh, AFF3 / RFU, LMF1 / Fold change vs veh, LMF1 / RFU, IPO11 / Fold change vs veh, IPO11 / RFU, DFFB / Fold change vs veh, DFFB / RFU, FOXP1 / Fold change vs veh, FOXP1 / RFU, CARD8 / Fold change vs veh, CARD8 / RFU, STRN3 / Fold change vs veh, STRN3 / RFU, ADK / Fold change vs veh, ADK / RFU, RASSF2 / Fold change vs veh, RASSF2 / RFU, WIPF1 / Fold change vs veh, WIPF1 / RFU, LARP1B / Fold change vs veh, LARP1B / RFU, RASA1 / Fold change vs veh, RASA1 / RFU, RB1 / Fold change vs veh, RB1 / RFU, PPFIA1 / Fold change vs veh, PPFIA1 / RFU, MAT2A / Fold change vs veh, MAT2A / RFU, CCT5 / Fold change vs veh, CCT5 / RFU, WDR92 / Fold change vs veh, WDR92 / RFU, CUX1 / Fold change vs veh, CUX1 / RFU, TTC7A / Fold change vs veh, TTC7A / RFU, TMEM135 / Fold change vs veh, TMEM135 / RFU, DEPTOR / Fold change vs veh, DEPTOR / RFU, CPM / Fold change vs veh, CPM / RFU, DNAJB6 / Fold change vs veh, DNAJB6 / RFU, CACNA2D3 / Fold change vs veh, CACNA2D3 / RFU, DTX4 / Fold change vs veh, DTX4 / RFU, TFCP2 / Fold change vs veh, TFCP2 / RFU, GMCL1 /// GMCL1P1 / Fold change vs veh, GMCL1 /// GMCL1P1 / RFU, AEBP2 / Fold change vs veh, AEBP2 / RFU, SNHG1 /// SNORD22 /// SNORD25 /// SNORD26 /// SNORD27 /// SNORD28 /// SNORD29 /// SNORD31 / Fold change vs veh, SNHG1 /// SNORD22 /// SNORD25 /// SNORD26 /// SNORD27 /// SNORD28 /// SNORD29 /// SNORD31 / Fold change (Aza/veh), C12orf56 (ProbeSet 11735607_a_at) / Fold change (ACY-1035/veh), C12orf56 (ProbeSet 11735607_a_at) / Fold change (Aza/veh), FGFR1OP (ProbeSet 11751329_s_at) / Fold change (ACY-1035/veh), FGFR1OP (ProbeSet 11751329_s_at) / Fold change (Aza/veh), VPS36 (ProbeSet 11739960_a_at) / Fold change (ACY-1035/veh), VPS36 (ProbeSet 11739960_a_at) / RFU SYPL1 (11715823_x_at) / Fold change /veh SYPL1 (11715823_x_at) / RFU IGFBP7 (11715501_s_at) / Fold change /veh IGFBP7 (11715501_s_at) / RFU REEP3 (11722064_at) / Fold change /veh REEP3 (11722064_at) / RFU IGLL1 (11728026_x_at) / Fold change /veh IGLL1 (11728026_x_at): dose or concentration left out as unconfirmed
Settings: MV-4-11 cells, 48 hours

Compound: Nc1ncn([C@@H]2O[C@H](CO)[C@@H](O)[C@H]2O)c(=O)n1 [azacitidine]
- Fold change /veh CCDC152 (11743942_at): 1.57
